# Results: patent US20150191469A1, “COMPOUNDS AND METHODS FOR TREATING HIV” (priority 2012, published 2015)
# Structures can show the parent of a compound that is named as a salt.
# Tested on: HIV
# Experiment: MT4 assay: antiviral HIV activity (cell protection, cell titer glo readout at 96 hours)
# Type: cell-based
# Settings: Human immunodeficiency virus 1, MT4, 96 h, MT4 cells, cell titer glo readout at 96 hours, 10 point dose response; read-out: HIV MT4 Assay IC50
# Procedure, shortened: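 MT-4 cells infected with HIV, with inhibition readout by CellTiter-Glo luminescence at 96 h relative to no-compound control. Cytotoxicity measured in parallel under the same conditions. IC50 from a 10-point, 3-4-fold dilution series spanning >1000-fold, fitted with a four-parameter logistic equation.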
row,Structure (SMILES),IC50
1,"Cc1nc2c(cc(-c3ccnc(C(=O)Nc4ccn(C)n4)c3)n2C)c(-c2cc(F)c3c(c2C)CCCO3)c1[C@H](OC(C)(C)C)C(=O)O (atropisomer, axis not shown) [Example 153]",44 nM
2,"Cc1nc2c(cc(-c3ccnc(C#CC(C)(C)N)c3)n2C)c(-c2cc(F)c3c(c2C)CCCO3)c1[C@H](OC(C)(C)C)C(=O)O (atropisomer, axis not shown) [Example 155]",81.9 nM
3,"Cc1nc2c(cc(-c3ccnc(C#CC4(N)CCCCC4)c3)n2C)c(-c2cc(F)c3c(c2C)CCCO3)c1[C@H](OC(C)(C)C)C(=O)O (atropisomer, axis not shown) [Example 156]",39.8 nM
4,"Cc1nc2c(cc(-c3ccnc(C#CCN4CCCC4)c3)n2C)c(-c2cc(F)c3c(c2C)CCCO3)c1[C@H](OC(C)(C)C)C(=O)O (atropisomer, axis not shown) [Example 157]",30 nM
5,"Cc1nc2c(cc(-c3ccnc(C#CCN4CCOCC4)c3)n2C)c(-c2cc(F)c3c(c2C)CCCO3)c1[C@H](OC(C)(C)C)C(=O)O (atropisomer, axis not shown) [Example 158]",45 nM
6,"Cc1nc2c(cc(-c3ccnc(C#CC4(O)CCCCC4)c3)n2C)c(-c2cc(F)c3c(c2C)CCCO3)c1[C@H](OC(C)(C)C)C(=O)O (atropisomer, axis not shown) [Example 159]",27.9 nM
7,"Cc1nc2c(cc(-c3ccnc(C#CCN4CCN(C)CC4)c3)n2C)c(-c2cc(F)c3c(c2C)CCCO3)c1[C@H](OC(C)(C)C)C(=O)O (atropisomer, axis not shown) [Example 160]",150 nM
8,"Cc1nc2c(cc(-c3ccnc(-c4ccc5c(cnn5C)c4)c3)n2C)c(-c2ccc3c(c2C)CCCO3)c1[C@H](OC(C)(C)C)C(=O)O (atropisomer, axis not shown; (M)) [Example 1, (2S)(M)-2-(tert-butoxy)-2-(1,6-dimethyl-2-(2-(1-methyl-1H-indazol-5-yl)pyridin-4-yl)-4-(5-methylchroman-6-yl)-1H-pyrrolo[2,3-b]pyridin-5-yl)acetic acid]",1.7 nM
9,"Cc1nc2c(cc(-c3nc(N4CCN(C5CCOCC5)CC4)no3)n2C)c(-c2cc(F)c3c(c2C)CCCO3)c1[C@H](OC(C)(C)C)C(=O)O (atropisomer, axis not shown; (M)) [Example 27, (2S)(M)-2-(tert-butoxy)-2-(4-(8-fluoro-5-methylchroman-6-yl)-1,6-dimethyl-2-(3-(4-(tetrahydro-2H-pyran-4-yl)piperazin-1-yl)-1,2,4-oxadiazol-5-yl)-1H-pyrrolo[2,3-b]pyridin-5-yl)acetic acid]",4.6 nM
10,"Cc1nc2c(cc(-c3nnc(-c4ccc5c(cnn5C)c4)o3)n2C)c(-c2cc(F)c3c(c2C)CCCO3)c1[C@H](OC(C)(C)C)C(=O)O (atropisomer, axis not shown; (M)) [Example 28, (2S)(M)-2-(tert-butoxy)-2-(4-(8-fluoro-5-methylchroman-6-yl)-1,6-dimethyl-2-(5-(1-methyl-1H-indazol-5-yl)-1,3,4-oxadiazol-2-yl)-1H-pyrrolo[2,3-b]pyridin-5-yl)acetic acid]",1.8 nM
11,"Cc1nc2c(cc3n2CCCC3)c(-c2cc(F)c3c(c2C)CCCO3)c1[C@H](OC(C)(C)C)C(=O)O (atropisomer, axis not shown; (M)) [Example 29, (2S)(M)-2-(tert-butoxy)-2-(4-(8-fluoro-5-methylchroman-6-yl)-2-methyl-6,7,8,9-tetrahydropyrido[3,2-b]indolizin-3-yl)acetic acid]",13.8 nM
12,"Cc1nc2c(cc(-c3ccn(C4CN(C)C4)n3)n2C)c(-c2cc(F)c3c(c2C)CCCO3)c1[C@H](OC(C)(C)C)C(=O)O (atropisomer, axis not shown; (M)) [Example 129, (2S)(M)-2-(tert-butoxy)-2-(-4-(8-fluoro-5-methylchroman-6-yl)-1,6-dimethyl-2-(1-(1-methylazetidin-3-yl)-1H-pyrazol-3-yl)-1H-pyrrolo[2,3-b]pyridin-5-yl)acetic acid]",45.2 nM
13,"Cc1nc2c(cc(-c3ccnc(C(=O)N4CCN(c5ccccc5)CC4)c3)n2C)c(-c2cc(F)c3c(c2C)CCCO3)c1[C@H](OC(C)(C)C)C(=O)O (atropisomer, axis not shown; (M)) [Example 145]",45.3 nM
14,"Cc1nc2c(cc(-c3ccnc(C#Cc4cncn4C)c3)n2C)c(-c2cc(F)c3c(c2C)CCCO3)c1[C@H](OC(C)(C)C)C(=O)O (atropisomer, axis not shown; (M)) [Example 154, (2S)(M)-2-(tert-butoxy)-2-(-4-(8-fluoro-5-methylchroman-6-yl)-1,6-dimethyl-2-(2-((1-methyl-1H-imidazol-5-yl)ethynyl)pyridin-4-yl)-1H-pyrrolo[2,3-b]pyridin-5-yl)acetic acid]",11 nM
15,"Cc1nc2c(cc(C(=S)N3CCC(c4ccccc4)CC3)n2C)c(-c2cc(F)c3c(c2C)CCCO3)c1[C@H](OC(C)(C)C)C(=O)O (atropisomer, axis not shown; (M)) [Example 281, (2S)(M)-2-(tert-butoxy)-2-(-4-(8-fluoro-5-methylchroman-6-yl)-1,6-dimethyl-2-(4-phenylpiperidine-1-carbonothioyl)-1H-pyrrolo[2,3-b]pyridin-5-yl)acetic acid]",38.3 nM
16,"Cc1nc2c(cc(CCc3ccccc3)n2C)c(-c2cc(F)c3c(c2C)CCCO3)c1[C@H](OC(C)(C)C)C(=O)O (atropisomer, axis not shown; (M)) [Example 282, (2S)(M)-2-(tert-butoxy)-2-(-4-(8-fluoro-5-methylchroman-6-yl)-1,6-dimethyl-2-phenethyl-1H-pyrrolo[2,3-b]pyridin-5-yl)acetic acid]",56.8 nM
17,"Cc1nc2c(cc(CN3CCCCC3)n2C)c(-c2cc(F)c3c(c2C)CCCO3)c1[C@H](OC(C)(C)C)C(=O)O (atropisomer, axis not shown; (M)) [Example 288, (2S)(M)-2-(tert-butoxy)-2-(-4-(8-fluoro-5-methylchroman-6-yl)-1,6-dimethyl-2-(piperidin-1-ylmethyl)-1H-pyrrolo[2,3-b]pyridin-5-yl)acetic acid]",250 nM
18,"Cc1nc2c(cc(CCC(=O)NCc3ccc(F)cc3)n2C)c(-c2cc(F)c3c(c2C)CCCO3)c1[C@H](OC(C)(C)C)C(=O)O (atropisomer, axis not shown; (M)) [Example 297, (2S)(M) 2-(tert-butoxy)-2-((R)-4-(8-fluoro-5-methylchroman-6-yl)-2-(3-((4-fluorobenzyl)amino)-3-oxopropyl)-1,6-dimethyl-1H-pyrrolo[2,3-b]pyridin-5-yl)acetic acid]",130 nM
19,"Cc1nc2c(cc(-c3nnc(N4CCN(C5CCOCC5)CC4)o3)n2C)c(-c2cc(F)c3c(c2C)CCCO3)c1[C@H](OC(C)(C)C)C(=O)O (atropisomer, axis not shown; (M)) [Example 300, (2S)(M)-2-(tert-butoxy)-2-(-4-(8-fluoro-5-methylchroman-6-yl)-1,6-dimethyl-2-(5-(4-(tetrahydro-2H-pyran-4-yl)piperazin-1-yl)-1,3,4-oxadiazol-2-yl)-1H-pyrrolo[2,3-b]pyridin-5-yl)acetic acid]",10.4 nM
20,"Cc1nc2c(cc(-c3nc(-c4ccc5c(cnn5C)c4)no3)n2C)c(-c2cc(F)c3c(c2C)CCCO3)c1[C@H](OC(C)(C)C)C(=O)O (atropisomer, axis not shown; (M)) [Example 354, (2S)(M)-2-(tert-butoxy)-2-(4-(8-fluoro-5-methylchroman-6-yl)-1,6-dimethyl-2-(3-(1-methyl-1H-indazol-5-yl)-1,2,4-oxadiazol-5-yl)-1H-pyrrolo[2,3-b]pyridin-5-yl)acetic acid]",5 nM
21,"Cc1nc2c(cc(-c3nc(-c4ccc5c(cnn5C)c4)ns3)n2C)c(-c2cc(F)c3c(c2C)CCCO3)c1[C@H](OC(C)(C)C)C(=O)O (atropisomer, axis not shown; (M)) [Example 355, (2S)(M)-2-(tert-butoxy)-2-(-4-(8-fluoro-5-methylchroman-6-yl)-1,6-dimethyl-2-(3-(1-methyl-1H-indazol-5-yl)-1,2,4-thiadiazol-5-yl)-1H-pyrrolo[2,3-b]pyridin-5-yl)acetic acid]",4.7 nM
22,"Cc1nc2c(cc(-c3nnc(-c4ccc5c(cnn5C)c4)s3)n2C)c(-c2cc(F)c3c(c2C)CCCO3)c1[C@H](OC(C)(C)C)C(=O)O (atropisomer, axis not shown; (M)) [Example 356, (2S)(M)-2-(tert-butoxy)-2-(-4-(8-fluoro-5-methylchroman-6-yl)-1,6-dimethyl-2-(5-(1-methyl-1H-indazol-5-yl)-1,3,4-thiadiazol-2-yl)-1H-pyrrolo[2,3-b]pyridin-5-yl)acetic acid]",9.8 nM
23,"Cc1nc2c(cc(-c3nsc(-c4ccc5c(cnn5C)c4)n3)n2C)c(-c2cc(F)c3c(c2C)CCCO3)c1[C@H](OC(C)(C)C)C(=O)O (atropisomer, axis not shown; (M)) [Example 357, (2S)(M)-2-(tert-butoxy)-2-(-4-(8-fluoro-5-methylchroman-6-yl)-1,6-dimethyl-2-(5-(1-methyl-1H-indazol-5-yl)-1,2,4-thiadiazol-3-yl)-1H-pyrrolo[2,3-b]pyridin-5-yl)acetic acid]",4 nM

# Same assay, conditions: Human immunodeficiency virus 1, MT4, 96 h, read-out: HIV MT4 Assay IC50
row,Structure (SMILES),IC50
1,"Cc1nc2c(cc(C(=O)N3CCN(C4CCCC4)CC3)n2C)c(-c2cc(F)c3c(c2C)CCCO3)c1[C@H](OC(C)(C)C)C(=O)O (atropisomer, axis not shown; (M)) [Example 161, (2S)(M)-2-(tert-butoxy)-2-(2-(4-cyclopentylpiperazine-1-carbonyl)-4-(8-fluoro-5-methylchroman-6-yl)-1,6-dimethyl-1H-pyrrolo[2,3-b]pyridin-5-yl)acetic acid ditrifluoroacetic acid salt]",37.9 nM

# Same assay, conditions: MT4 cells, cell titer glo readout at 96 hours, 10 point dose response; read-out: HIV MT4 Assay IC50
row,Structure (SMILES),IC50
1,"Cc1nc2c(cc(-c3nc(N4CCN(C5CCOCC5)CC4)ns3)n2C)c(-c2cc(F)c3c(c2C)CCCO3)c1[C@H](OC(C)(C)C)C(=O)O (atropisomer, axis not shown; (M)) [Example 26, (2S)(M)-2-(tert-butoxy)-2-(4-(8-fluoro-5-methylchroman-6-yl)-1,6-dimethyl-2-(3-(4-(tetrahydro-2H-pyran-4-yl)piperazin-1-yl)-1,2,4-thiadiazol-5-yl)-1H-pyrrolo[2,3-b]pyridin-5-yl)acetic acid]",2.9 nM
